Reference: patent publication US20250049926A1, “PHARMACEUTICAL COMPOSITIONS COMPRISING MODIFIED BETACYCLODEXTRINS” (priority 2021, published 2025)

Test: Solubility measurement of saturated solutions by HPLC at room temperature (0 h and 24 h)
Assay type: physicochemical
Settings: buffered water with excipients, pH 4, aqueous with cosolvent or surfactant or cyclodextrin, thermodynamic from solid
Procedure: The vial contents are prepared starting with 2.5 mg of the compound of formula (I). The primary excipient is added followed by any further excipient and then the buffered water to a total volume of 500 μL. All components are mixed in a vortex mixer for ca. 5 minutes. If everything is dissolved an additional 2.5 mg of the compound of formula (I) is added and vortexed again for ca. 5 minutes. This is repeated until a saturated solution (suspension) is obtained.
The solubility in vial 1 is measured immediately as described below.
To measure solubility 400 μl of the suspension are taken and placed in a centrifugation device above a 0.2 μm filter. Centrifugation is performed at 14,000 rpm for 10 minutes and if necessary repeated for additional 10 minutes. The filter is removed from the vial and 100 μL is taken and diluted with 400 μL high-performance liquid chromatography (HPLC) diluent solution (see below) or diluted with 900 μL HPLC diluent solution in the event 5 mg or more of the compound of formula (I) was used. The pH of the solution is measured. A further 100 μL of the vial solution is taken and diluted with 400 μL of HPLC diluent solution or diluted with 900 μL HPLC diluent solution in the event 5 mg or more of the compound of formula (I) was used. The assay of the solution versus control stock solution is measured by HPLC and the solubility is calculated as described below. The HPLC diluent solution is 0.1% trifluoroacetic acid (TFA) in acetonitrile (ACN) and water (1:1 v/v).
All solubility tests are performed at room temperature.
The HPLC method for assessing solubility is performed as follows:
The solubility of the compound of formula (I) is calculated according to the following formula:
[formula] • Solubility=solubility of compound of formula (I) (mg/mL) • A=peak area of the compound of the sample tested • a=value of constant “a” in Linear regression equation y=ax+b • b=value of constant “b” in Linear regression equation y=ax+b • n=dilution time • Formulations for stability assessment are prepared as follows: […]

COc1cc(N2CCNCC2)ccc1Nc1ncc2c(n1)-n1ccc(C(=O)Nc3c(C)cccc3C)c1CC2 [compound of formula (I)]
solubility at 24 h (CBS 30 mM pH 4.0, NaCl 3 mg/mL, SBE-beta-CD 40 mg/mL + Kollidon 12 P188 5 mg/mL, pH exp 4.2): 3710 µg/mL
solubility at 0 h (CBS 30 mM pH 4.0, NaCl 3 mg/mL, SBE-beta-CD 40 mg/mL + Na CMC 5 mg/mL, pH exp 4.1): 1710 µg/mL
solubility at 24 h (CBS 30 mM pH 4.0, NaCl 3 mg/mL, SBE-beta-CD 40 mg/mL + Na CMC 5 mg/mL, pH exp n. a.): 2670 µg/mL
solubility at 0 h (CBS 30 mM pH 4.0, NaCl 3 mg/mL, SBE-beta-CD 40 mg/mL + PEG 400 1 mg/mL, pH exp 4.1): 2480 µg/mL
solubility at 24 h (CBS 30 mM pH 4.0, NaCl 3 mg/mL, SBE-beta-CD 40 mg/mL + PEG 400 1 mg/mL, pH exp 4.2): 3730 µg/mL
solubility at 0 h (CBS 30 mM pH 4.0, NaCl 3 mg/mL, SBE-beta-CD 40 mg/mL + PEG 400 5 mg/mL, pH exp 4.1): 2340 µg/mL
solubility at 24 h (CBS 30 mM pH 4.0, NaCl 3 mg/mL, SBE-beta-CD 40 mg/mL + PEG 400 5 mg/mL, pH exp 4.2): 3750 µg/mL
solubility at 0 h (CBS 30 mM pH 4.0, NaCl 3 mg/mL, SBE-beta-CD 40 mg/mL + PEG 400 10 mg/mL, pH exp 4.1): 2590 µg/mL
solubility at 24 h (CBS 30 mM pH 4.0, NaCl 3 mg/mL, SBE-beta-CD 40 mg/mL + PEG 400 10 mg/mL, pH exp 4.2): 3790 µg/mL
solubility at 0 h (CBS 30 mM pH 4.0, NaCl 3 mg/mL, SBE-beta-CD 40 mg/mL + PEG 400 20 mg/mL, pH exp 4.1): 2570 µg/mL
solubility at 24 h (CBS 30 mM pH 4.0, NaCl 3 mg/mL, SBE-beta-CD 40 mg/mL + PEG 400 20 mg/mL, pH exp 4.2): 3810 µg/mL
solubility at 0 h (CBS 30 mM pH 4.0, NaCl 3 mg/mL, SBE-beta-CD 40 mg/mL + PEG 400 30 mg/mL, pH exp 4.1): 2670 µg/mL
solubility at 24 h (CBS 30 mM pH 4.0, NaCl 3 mg/mL, SBE-beta-CD 40 mg/mL + PEG 400 30 mg/mL, pH exp 4.2): 3860 µg/mL
solubility at 0 h (CBS 30 mM pH 4.0, NaCl 3 mg/mL, SBE-beta-CD 40 mg/mL + PEG 4000 5 mg/mL, pH exp 4.1): 2420 µg/mL
solubility at 24 h (CBS 30 mM pH 4.0, NaCl 3 mg/mL, SBE-beta-CD 40 mg/mL + PEG 4000 5 mg/mL, pH exp 4.2): 3670 µg/mL
solubility at 0 h (CBS 30 mM pH 4.0, NaCl 3 mg/mL, SBE-beta-CD 40 mg/mL + Soybean lecithin 10 mg/mL, pH exp 4.1): 2520 µg/mL
solubility at 24 h (CBS 30 mM pH 4.0, NaCl 3 mg/mL, SBE-beta-CD 40 mg/mL + Soybean lecithin 10 mg/mL, pH exp 4.3): 3600 µg/mL
solubility at 0 h (CBS 30 mM pH 4.0, NaCl 3 mg/mL, SBE-beta-CD 40 mg/mL + Tween 80 5 mg/mL, pH exp 4.1): 2950 µg/mL
solubility at 24 h (CBS 30 mM pH 4.0, NaCl 3 mg/mL, SBE-beta-CD 40 mg/mL + Tween 80 5 mg/mL, pH exp 4.2): 4040 µg/mL
solubility at 0 h (CBS 30 mM pH 4.0, NaCl 6 mg/mL, SBE-beta-CD 40 mg/mL + Kollidon 12 PF 2.5 mg/mL, pH exp 4.1): 2370 µg/mL
solubility at 24 h (CBS 30 mM pH 4.0, NaCl 6 mg/mL, SBE-beta-CD 40 mg/mL + Kollidon 12 PF 2.5 mg/mL, pH exp 4.3): 3690 µg/mL
solubility at 0 h (CBS 30 mM pH 4.0, NaCl 6 mg/mL, SBE-beta-CD 40 mg/mL + Kollidon 12 PF 5 mg/mL, pH exp 4.0): 2510 µg/mL
solubility at 24 h (CBS 30 mM pH 4.0, NaCl 6 mg/mL, SBE-beta-CD 40 mg/mL + Kollidon 12 PF 5 mg/mL, pH exp 4.2): 3750 µg/mL
solubility at 0 h (CBS 30 mM pH 4.0, NaCl 6 mg/mL, SBE-beta-CD 40 mg/mL + Kollidon 12 PF 10 mg/mL, pH exp 4.1): 2520 µg/mL
solubility at 24 h (CBS 30 mM pH 4.0, NaCl 6 mg/mL, SBE-beta-CD 40 mg/mL + Kollidon 12 PF 10 mg/mL, pH exp 4.2): 3700 µg/mL
solubility at 0 h (CBS 30 mM pH 4.0, NaCl 6 mg/mL, SBE-beta-CD 40 mg/mL + Propylene glycol 5 mg/mL, pH exp 4.1): 2360 µg/mL
solubility at 24 h (CBS 30 mM pH 4.0, NaCl 6 mg/mL, SBE-beta-CD 40 mg/mL + Propylene glycol 5 mg/mL, pH exp 4.3): 3820 µg/mL
solubility at 0 h (CBS 30 mM pH 4.0, NaCl 6 mg/mL, SBE-beta-CD 40 mg/mL + Propylene glycol 10 mg/mL, pH exp 4.1): 2420 µg/mL
